The results in this text go back to doi:10.1101/2024.12.09.627564, “Cannabinoid inhibition of mechanosensitive K^+ channels” (bioRxiv, 2024).

This experiment addresses T1, Homo sapiens TREK-2 (Homo sapiens, UniProt P57789).
T1 construct: TREK-2 amino acids 1–538; expressed in transfected cells; host or cells: Xenopus laevis oocytes, cRNA injection
T1 sequence (P57789 1-538): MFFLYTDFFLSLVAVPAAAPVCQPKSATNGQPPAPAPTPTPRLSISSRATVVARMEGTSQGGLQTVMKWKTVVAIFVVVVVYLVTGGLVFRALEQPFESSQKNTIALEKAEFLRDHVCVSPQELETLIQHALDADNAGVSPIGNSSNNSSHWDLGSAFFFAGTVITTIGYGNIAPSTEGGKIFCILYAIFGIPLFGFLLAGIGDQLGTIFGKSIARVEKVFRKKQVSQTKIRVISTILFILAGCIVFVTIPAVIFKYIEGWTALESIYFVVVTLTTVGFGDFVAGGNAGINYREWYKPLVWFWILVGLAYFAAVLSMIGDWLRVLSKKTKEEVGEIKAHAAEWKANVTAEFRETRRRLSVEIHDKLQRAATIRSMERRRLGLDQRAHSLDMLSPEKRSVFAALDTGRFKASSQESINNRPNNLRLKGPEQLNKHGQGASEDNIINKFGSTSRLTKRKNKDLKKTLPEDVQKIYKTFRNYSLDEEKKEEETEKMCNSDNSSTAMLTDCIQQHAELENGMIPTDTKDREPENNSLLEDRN
The experiment in a line: Excised inside-out patch recording of TREK-2 from Xenopus oocytes. In kind it is biochemical. The text has this:
For patch clamp recording from Xenopus oocytes, genes encoding full-length Homo sapiens TRAAK (UniProt Q9NYG8–2), TREK-1 (UniProt O95069), and TREK-2 (UniProt P57789) were codon optimized for eukaryotic expression, synthesized (Genewiz), and cloned into a modified pGEMHE vector using Xho1 and EcoR1 restriction sites. The transcribed messages encode H. sapiens TRAAK amino acids 1–393, TREK-1 amino acids 1–426, or TREK-2 amino acids 1–538 with an additional three amino acids (SNS) at the C terminus. TRAAK mutants were introduced by polymerase chain reaction (PCR). Linearized DNA was transcribed in vitro using T7 polymerase. Complementary RNA (0.1 to 10 ng for TRAAK, TREK-1, TREK-2, and mutants) in 50 nL H2O was injected into Xenopus laevis oocytes extracted from anesthetized frogs. Currents were recorded at 25 °C from inside-out patches excised from oocytes 1 to 5 d after RNA injection. […]
Patches were evaluated with voltage-step protocols to confirm TRAAK expression and minimal non-specific leak based on reversal potential. Currents were recorded using an Axopatch 200B amplifier (Molecular Devices) at a bandwidth of 1 kHz and digitized with an Digidata 1550B (Molecular Devices) at 100–500 kHz using pClamp10.7 software. […] In an effort to minimize variability associated with differences in resting membrane tension, we targeted patches with low basal curvature and low resting channel activity and ensured measured pressure difference across the patch was as close to zero as possible at rest to prevent mechanical activation of channels. Data were analyzed using Clampfit 10.7, Excel, and Graphpad Prism software. […]
To avoid cannabinoid absorption to plastic, cannabinoid solutions were made in glass vials and diluted by weight, perfusion was performed using glass tubing pulled from borosilicate glass Pasteur pipettes (Fisherbrand, Cat# 13–678-20C), and recordings were performed in glass chambers. Channel activity was continuously recorded during perfusion steps. […]

pIC50: −log10 of the molar value.

The pIC50 is the negative decadic logarithm of the IC50, by convention in mol/L. High values mean a low IC50, low ones a high IC50.

As for `C=C(C)[C@@H]1CCC(C)=C[C@H]1c1c(O)cc(CCCCC)cc1O` [CBD, Cannabidiol], the pIC50 is 5.89. The Hill-coefficient (TREK-2 dose-response) came to 3.8. Besides, the “fold less sensitive than TRAAK” value (TREK-2 vs TRAAK) is ~ 10 fold.
